The results in this text go back to patent publication US20080248993A1, “Modified Beta Thymosin Peptides” (REGENERX BIOPHARMACEUTICALS, INC., priority 2005, published 2008).

Broadly, the Kd is the concentration at which binding is half-saturated.

The experiment concerns the target G-actin. Nature of the experiment: G-actin binding affinity (ultrafiltration of free and bound peptide, HPLC of the ultrafiltrate). As for the experimental part: Tests were conducted to determine the G-actin binding affinity of Tβ4^leu as compared to native Tβ4. The experiments were repeated twice and in triplicate, with the results shown below (averages from 3 experiments):
The lower values in the case of Tβ4 are caused by its sulfoxide. Tβ4 plus Tβ4-sulfoxide was determined by amino acid analysis. […] Thus the real concentration of Tβ4 in the tests are lower and the decrease of free Tβ4 is higher when compared to non-oxidized Tβ4. The decrease of free beta-thymosin was measured. G-actin bound Tβ4 and free Tβ4 were separated by ultrafiltration and the concentration of Tβ4 in the ultrafiltrate was measured by HPLC. The procedure utilized is described in Huff et al., FEPS Letters, 414:39-44 (1997).

Setting [1] is: First determination, averages from 3 experiments, read-out: Kd, G-actin binding.
Setting [2] is: Second determination, averages from 3 experiments, read-out: Kd, G-actin binding.

Read-outs that look alike come from different tables or passages of the source.

Consider “Tβ4: Native 43 amino acid, 4.9 kDa polypeptide with methionine at position 6; comparator”, for which the dissociation constant (Kd) (Example 8, comparison of Tβ4-sulfone with Tβ4 and Tβ4-sulfoxide, read-out: Kd value of the complex with G-actin) came to 1000 nM; the Kd under setting [1] was found to be 1280 nM; the Kd under setting [2] is 540 nM.

For the substance “Tβ4^leu: Thymosin β4 with leucine substituted for methionine at position 6 (SDKPDLAEIEKFDKSKLKKTETQEKNPLPSKETIEQEKQAGES; not fully specified; Thymosin beta-4; UniProt P62328 2-44, looked up, variant M6L)”, the dissociation constant Kd under setting [1] was found to be 1360 nM and the Kd under setting [2] came to 990 nM. Further, where the note is “qualitative statement”, the “G-actin binding, in words” value is recorded as “substantial actin-binding activity”.
